# According to article PMC11984586, “A novel spider toxin as a selective antagonist of the Kv1 subfamily of voltage-gated potassium channels through gating modulation” (The Journal of Biological Chemistry, 2025):
# Like-named read-outs stand apart in the source and are kept apart here. Bridge positions count the residues as written; N and C are the ends. Peptide text beside a SMILES is read from it.
# Experiments:
# Type in all cases: cell-based
# [1] = target: T1, Kv1.3/I472C mutant (Kv1.3∗) (Homo sapiens, UniProt P22001, I472C); assay: Gating-current recording, Kv1.3* in HEK293T cells; settings: mean ± SD; for IC50: held at −100 mV, 50 ms depolarization to +30 mV, HEK293T
# T1 construct: expressed in transfected cells; host or cells: HEK293T
# T1 sequence (P22001 whole entry I472C): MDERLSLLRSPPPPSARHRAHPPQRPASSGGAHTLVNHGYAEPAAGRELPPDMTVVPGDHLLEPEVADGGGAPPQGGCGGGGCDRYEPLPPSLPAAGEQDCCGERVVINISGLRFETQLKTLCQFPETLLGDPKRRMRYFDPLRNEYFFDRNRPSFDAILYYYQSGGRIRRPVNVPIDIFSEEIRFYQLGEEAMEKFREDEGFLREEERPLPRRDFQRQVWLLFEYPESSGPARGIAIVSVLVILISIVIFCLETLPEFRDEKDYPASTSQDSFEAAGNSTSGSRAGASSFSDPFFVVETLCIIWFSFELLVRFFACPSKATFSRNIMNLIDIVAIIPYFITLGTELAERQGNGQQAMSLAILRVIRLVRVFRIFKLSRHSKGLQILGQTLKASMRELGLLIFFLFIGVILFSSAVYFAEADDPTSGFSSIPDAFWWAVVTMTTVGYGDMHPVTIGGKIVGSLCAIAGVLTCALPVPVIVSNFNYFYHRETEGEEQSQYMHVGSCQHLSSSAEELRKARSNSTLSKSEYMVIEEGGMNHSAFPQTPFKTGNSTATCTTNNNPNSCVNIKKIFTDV
# Protocol: (§1) The cDNA of hKv1.1, hKv1.2, hKv1.3, rKv1.4, hKv1.5, mKv1.6, and hKv1.7 were subcloned into mammalian expression vectors pcDNA3.1 or pCMV-blank vectors, as well as other plasmids described previously ([35]). Channel mutants were generated by site-directed mutations. Briefly, the parental channel plasmid was amplified using a pair of oppositely directed primers harboring the designed mutation site, with KOD Fx (TOYOBO Co, Ltd). The resulting PCR mix was treated with FastDigest DpnI (Thermo Fisher Scientific) to remove the methylated template. Ten microliters of the digested product was then used to transform 100 μl E. coli DH5α competent cells. Transformants were randomly picked and sequenced to confirm the presence of the intended mutation.
# CHO-K1 cells were selected for expressing Kv channels due to their lack of endogenous Kv channels, while HEK293 or ND7/23 cells were used for Nav and Cav channel expression. CHO-K1 cells were cultured in a Dulbecco's modified Eagle's medium/Ham's F-12 nutrient mixture (DMEM-F12) medium, and HEK293T and ND7/23 cells in DMEM medium, all supplemented with 10% fetal bovine serum and 1% penicillin-streptomycin (all from Gibco, Thermo Fisher Scientific, Inc) under standard conditions (37 °C, 5% CO2, and saturated humidity). These cell lines were purchased from Stem Cell Bank, Chinese Academy of Sciences. Channel plasmids were cotransfected with pEGFP-N1 (encoding GFP) into the respective cells using lipofectamine 2000, following the manufacturer's instructions (Invitrogen, Thermo Fisher Scientific, Inc.). […] After 4 to 6 h transfection, cells were seeded onto poly-lysine–coated coverslips, and 24 to 36 h later, transfected cells were ready for patch-clamp analysis. […]
# Gating currents were recorded by transfecting HEK293T cells with a saturating dose of plasmid to ensure maximal channel expression. […] Gating charge movement (Q) was determined by integrating the area under the IgON and IgOFF traces, representing voltage sensor movement in response to depolarizing pulses. […]
# Kv1.3/E346A = target: T2, Kv1.3/E346A (Homo sapiens, UniProt P22001, E346A); assay: Whole-cell patch clamp, Kv1.3 alanine mutant
# T2 construct: expressed in transfected cells; host or cells: CHO-K1
# T2 sequence (P22001 whole entry E346A): as the sequence (P22001 whole entry I472C) above, with E346A, C472I counted along it
# Protocol: (§2) MrVIII inhibits Kv1 channels by stabilizing the voltage sensor in its resting state. […] To investigate this hypothesis, we constructed a series of alanine mutants in the S3-S4 region of the Kv1.3 channel, covering residues I336 to L363, to identify critical interactions between the peptide and the channel (Fig. 6A). […] For the remaining mutants that retained functional current expression, we evaluated the inhibitory activity of 100 nM MrVIII. […] The lack of conserved multiple interaction sites may explain the absence of activity on other Kv subfamily channels (Fig. S3). In summary, this study identified key amino acid residues in the S3-S4 region of the Kv1.3 channel that interact with MrVIII, providing a foundation for further exploration into the peptide's mechanism of action.
# as §1
# (§3) CHO-K1 cells were selected for expressing Kv channels due to their lack of endogenous Kv channels, while HEK293 or ND7/23 cells were used for Nav and Cav channel expression. CHO-K1 cells were cultured in a Dulbecco's modified Eagle's medium/Ham's F-12 nutrient mixture (DMEM-F12) medium, and HEK293T and ND7/23 cells in DMEM medium, all supplemented with 10% fetal bovine serum and 1% penicillin-streptomycin (all from Gibco, Thermo Fisher Scientific, Inc) under standard conditions (37 °C, 5% CO2, and saturated humidity). These cell lines were purchased from Stem Cell Bank, Chinese Academy of Sciences. Channel plasmids were cotransfected with pEGFP-N1 (encoding GFP) into the respective cells using lipofectamine 2000, following the manufacturer's instructions (Invitrogen, Thermo Fisher Scientific, Inc.). Nav1.9-GFP plasmid was transfected into ND7/23 using the X-tremeGENE HP DNA Transfection Reagent (Roche). After 4 to 6 h transfection, cells were seeded onto poly-lysine–coated coverslips, and 24 to 36 h later, transfected cells were ready for patch-clamp analysis.
# (§4) Patch clamp experiments were conducted using an electrophysiology platform comprising a MultiClamp 700B amplifier and an Axon Digidata 1550 AD/DA convertor (Axon Instruments). Data acquisition was performed with pClamp 10.5 software (Axon Instruments). All experiments were performed at room temperature.
# (§5) For Kv current recordings, the bath solution contained (in mM) the following: 140 NaCl, 5 KCl, 1 MgCl2, 2 CaCl2, 10 glucose, and 10 Hepes (pH 7.3, adjusted with NaOH), and the pipette solution contained (in mM) the following: 140 KCl, 2.5 MgCl2, 11 EGTA, and 10 Hepes (pH 7.3, adjusted with KOH). Series resistance was maintained below 10 MΩ and compensated to 80%. Concentration–response curves were fitted by the Hill equation to determine the toxin's potency. Whole cell conductance (G) at each depolarizing voltage (V) was determined using the equation: G = I/(V−Vrev), where I is the current amplitude, and Vrev is the reversal potential. The reversal potential for K^+ current was estimated to be −85.6 mV using the Nernst equation. G-V curves were obtained by plotting the normalized conductance as a function of V and fitted by the Boltzmann equation: y = 1/(1+ exp((Va-V)/k)), which Va is the midpoint voltage, V is the test potential, and k is the slope factor. The steady-state fast inactivation of Kv1.3 was measured using a two-pulses protocol. […]
# Kv1.3/I341A = target: T3, Kv1.3/I341A (Homo sapiens, UniProt P22001, I341A); assay: Whole-cell patch clamp, Kv1.3 alanine mutant
# T3 construct: expressed in transfected cells; host or cells: CHO-K1
# T3 sequence (P22001 whole entry I341A): as the sequence (P22001 whole entry I472C) above, with I341A, C472I counted along it
# Protocol: as §2, §1, §3, §4, §5
# Kv1.3/L343A = target: T4, Kv1.3/L343A (Homo sapiens, UniProt P22001, L343A); assay: Whole-cell patch clamp, Kv1.3 alanine mutant
# T4 construct: expressed in transfected cells; host or cells: CHO-K1
# T4 sequence (P22001 whole entry L343A): as the sequence (P22001 whole entry I472C) above, with L343A, C472I counted along it
# Protocol: as §2, §1, §3, §4, §5
# Kv1.3/L347A = target: T5, Kv1.3/L347A (Homo sapiens, UniProt P22001, L347A); assay: Whole-cell patch clamp, Kv1.3 alanine mutant
# T5 construct: expressed in transfected cells; host or cells: CHO-K1
# T5 sequence (P22001 whole entry L347A): as the sequence (P22001 whole entry I472C) above, with L347A, C472I counted along it
# Protocol: as §2, §1, §3, §4, §5
# Kv1.3/L360A = target: T6, Kv1.3/L360A (Homo sapiens, UniProt P22001, L360A); assay: Whole-cell patch clamp, Kv1.3 alanine mutant
# T6 construct: expressed in transfected cells; host or cells: CHO-K1
# T6 sequence (P22001 whole entry L360A): as the sequence (P22001 whole entry I472C) above, with L360A, C472I counted along it
# Protocol: as §2, §1, §3, §4, §5
# Kv1.3/T342A = target: T7, Kv1.3/T342A (Homo sapiens, UniProt P22001, T342A); assay: Whole-cell patch clamp, Kv1.3 alanine mutant
# T7 construct: expressed in transfected cells; host or cells: CHO-K1
# T7 sequence (P22001 whole entry T342A): as the sequence (P22001 whole entry I472C) above, with T342A, C472I counted along it
# Protocol: as §2, §1, §3, §4, §5
# [2] = 100 nM MrVIII on mutant compared with 10 nM on WT Kv1.3, +30 mV, n = 4–7
compound,measurement,setting,value
"CC[C@H](C)[C@@H]1NC(=O)[C@H](Cc2ccc(O)cc2)NC(=O)[C@H](CCC(N)=O)NC(=O)[C@@H]2CCCN2C(=O)[C@@H]2CSSC[C@H](NC(=O)[C@H](C)NC(=O)[C@H](CO)NC(=O)[C@H](CCC(=O)O)NC(=O)[C@H](CCC(=O)O)NC(=O)[C@@H](N)[C@@H](C)O)C(=O)NCC(=O)NCC(=O)N[C@@H](Cc3ccccc3)C(=O)N[C@@H](CC(N)=O)C(=O)N[C@@H](C)C(=O)N[C@@H](CCCNC(=N)N)C(=O)N[C@H]3CSSC[C@H](NC1=O)C(=O)N[C@@H](CCCCN)C(=O)NCC(=O)N[C@@H](Cc1c[nH]c4ccccc14)C(=O)N[C@@H](CCCNC(=N)N)C(=O)N[C@@H]([C@@H](C)O)C(=O)N[C@@H](CCCCN)C(=O)N[C@@H](CCCNC(=N)N)C(=O)N[C@H](C(=O)N[C@@H](CC(C)C)C(=O)N[C@@H](CC(N)=O)C(=O)N1CCC[C@H]1C(=O)O)CSSC[C@H](NC(=O)[C@H](CCCCN)NC(=O)[C@H](Cc1c[nH]cn1)NC(=O)[C@H](CC(C)C)NC(=O)[C@@H]1CCCN1C3=O)C(=O)N2 [MrVIII] (H-TEESACGGFNARCPLHKCCPQYICKGWRTKRCLNP-OH; disulfide 6-19, 13-24, 18-32; N-terminus and C-terminus assumed)",Va of Q-V relationship of Kv1.3∗ after toxin,"[1]; 5 nM MrVIII, before toxin −30.1 ± 7.1 mV, n = 5",−27.4 ± 10.3 mV
same,IC50,"[1]; n = 8, read-out: IC50, inhibition of IgOFF gating current of Kv1.3∗",7 ± 4.2 nM
same,IC50,"[1]; n = 8, read-out: IC50, inhibition of IgON gating current of Kv1.3∗",5 ± 3.4 nM
same,"decrease of inhibitory potency vs WT Kv1.3, E346A",Kv1.3/E346A; [2],more than 10 fold
same,IC50,"Kv1.3/E346A; +30 mV, 500 ms, mean ± SD, n = 4–6, SD, read-out: IC50, Kv1.3/E346A current",51.1 ± 21.1 nM
same,"decrease of inhibitory potency vs WT Kv1.3, I341A",Kv1.3/I341A; [2],more than 10 fold
same,IC50,"Kv1.3/I341A; +30 mV, 500 ms, mean ± SD, n = 4–6, SD, read-out: IC50, Kv1.3/I341A current",41 ± 26.3 nM
same,"decrease of inhibitory potency vs WT Kv1.3, L343A",Kv1.3/L343A; [2],more than 10 fold
same,IC50,"Kv1.3/L343A; +30 mV, 500 ms, mean ± SD, n = 4–6, SD, read-out: IC50, Kv1.3/L343A current",135 ± 34 nM
same,"decrease of inhibitory potency vs WT Kv1.3, L347A",Kv1.3/L347A; [2],more than 10 fold
same,IC50,"Kv1.3/L347A; +30 mV, 500 ms, mean ± SD, n = 4–6, SD, read-out: IC50, Kv1.3/L347A current",85.7 ± 41.3 nM
same,"decrease of inhibitory potency vs WT Kv1.3, L360A",Kv1.3/L360A; [2],more than 10 fold
same,IC50,"Kv1.3/L360A; +30 mV, 500 ms, mean ± SD, n = 4–6, SD, read-out: IC50, Kv1.3/L360A current",148 ± 60.4 nM
same,"decrease of inhibitory potency vs WT Kv1.3, T342A",Kv1.3/T342A; [2],more than 10 fold
same,IC50,"Kv1.3/T342A; current at 50 ms, +30 mV, mean ± SD, n = 4–6, SD",143 ± 38.2 nM
same,"inhi%(495 ms), Kv1.3/T342A current","Kv1.3/T342A; current at 495 ms, +30 mV, mean ± SD, n = 4–6, SD",27.7 ± 12.9%
